In patent US11725020B2, “Prodrugs of a CDK inhibitor for treating cancers” (priority 2019, dated 2023):
“Also recorded” adds a separate entry of the source.

What was measured:
[1] = Toxicokinetic study in rats: dose exploration; format: in vivo, Male SD (Sprague Dawley) rats; details: rat, i.v., one animal
Experimental: (§1) Male SD (Sprague Dawley) rats of body weight 220 to 240 g were maintained under standard conditions and randomized into three groups. On day 0 (initial day), all the animals were given one of the three compounds intravenously. Dose was calculated in mmol/kg.
(a) Dose exploration: One animal from each group was given the preset high dose of each compound.

[2] = Toxicity study in mice: body weight after a single i.v. dose; format: in vivo, Male mice (BABL/c)
Experimental: (§2) Male mice (BABL/c) of 20 to 22 g were maintained under standard conditions and randomized into groups. […] Doses were calculated and expressed in mmol/kg-body weight, and drug tolerability, pharmacokinetics, and body weight effect were assessed.
Clinical observations were made in the following schedule: continuous observation in the first four hours after dosing, and then twice daily, at one week time, and at day 14. The parameters for observation included animal's physical and mental behaviors, autonomous activity, hair, gland secretion, feces, and death. Body temperature was taken at pre-dosing, and on days 3, 5, 7, and 10 post-dosing.
The body weights of the animals are summarized in Table 4, and the trend lines for animal body weight changes in each group are given in FIG. 2. The body weight was average weight of all the animals in the group from a single measurement.

[3] = Toxicity study in mice: tolerability after i.v. administration; format: in vivo; details: for toxicity compared with AT7519: 2-fold (11) and 4-fold (12) molar-equivalents of the AT7519 threshold level
Experimental: as §2

[4] = Toxicity study in mice: toxicokinetics, plasma AT7519 concentration; format: in vivo, Male mice (BABL/c); details: for plasma AT7519 exposures compared with AT7519 dosing: i.v., compound 11 0.062 mmol/kg, compound 12 0.124 mmol/kg, AT7519 0.031 mmol/kg
Experimental: as §2
Blood samples were collected at 2 min, 10 min, 1 h, and 4 h. Concentration of T7519 was analyzed in each sample using LC-MS/MS method. The results are summarized in Table 3, and the concentration-time curves are illustrated in FIG. 1.

[5] = tested on: peripheral blood mononuclear cells (PBMNC); details: cited from earlier work
[6] = human, in vivo; cited from earlier work
U266 = details: U266, 48 hours; read-out: cytotoxicity IC50; cited from earlier work
SW620 = details: read-out: antiproliferative IC50; cited from earlier work
[7] = 32.4 mg/m^2; cited from earlier work
MCF-7 = details: read-out: antiproliferative IC50; cited from earlier work
human MM xenograft = details: 15 mg/kg; cited from earlier work
[8] = tested on: HT29 colon cancer xenograft; details: 9.1 mg/kg twice daily, early-stage and advanced-stage s.c. tumors; cited from earlier work
non-CDK kinases = details: with the exception of GSK3β; cited from earlier work
[9] = tested on: HCT116 colon cancer xenograft; details: 9.1 mg/kg twice daily, early-stage and advanced-stage s.c. tumors; cited from earlier work
MM.1S = details: 48 hours, read-out: cytotoxicity IC50; cited from earlier work
MM.1R = details: 48 hours, read-out: cytotoxicity IC50; cited from earlier work
[10] = Toxicokinetic study in rats: TK study, plasma AT7519 concentration; format: in vivo, Male SD (Sprague Dawley) rats; details: male, Sprague-Dawley, iv; rat plasma, I.V., 0.039 mmol/kg
Experimental: as §1
(b) TK study: The remaining animals were randomized into three groups, with 6 in each group. […] TK analysis was conducted as follows: Blood samples were collected at time points of 2 min, 10 min, 1 h, 2 h, and 6 h into sample tube (heparinized).

[11] = single i.v. dose 0.062 mmol/kg on day 0, group average
[12] = single i.v. dose 0.124 mmol/kg on day 0, group average
[13] = single i.v. dose 0.031 mmol/kg on day 0, group average
[14] = male, BALB/c, mouse, plasma, iv, I.V., 0.031 mmol/kg

**Q.** With O=C(NC1CCNCC1)c1nn(COP(=O)([O-])[O-])cc1NC(=O)c1c(Cl)cccc1Cl.[Na+].[Na+] [Compound 11] as the compound, how does the Animal death ([1]; 0.055 mmol/kg, listed as compound 11, phosphate disodium Salt) read?
**A.** The Animal death was “already at their lethal doses”.

**Q.** And the Animal death ([1]; 0.055 mmol/kg, phosphate disodium Salt)?
**A.** Its Animal death is “Died at 2 min post-dosing”.

**Q.** What about the “Body weight (g) Day 0” value [2, 11] of the same compound?
**A.** The value was 19.16 g.

**Q.** And the “Body weight (g) Day 1” value [2, 11]?
**A.** Its value is 18.58 g.

**Q.** What about the “Body weight (g) Day 2” value [2, 11] of the same compound?
**A.** Its value is 18.83 g.

**Q.** And the “Body weight (g) Day 4” value [2, 11]?
**A.** Its value is 19.95 g.

**Q.** And the “Body weight (g) Day 7” value [2, 11]?
**A.** The value was 20.16 g.

**Q.** What about the “Body weight (g) Day 10” value [2, 11] of the same compound?
**A.** Its value is 20.52 g.

**Q.** And the “Death rate (%)” value ([3]; mice, i.v., 0.062 mmol/kg)?
**A.** The value was 0%.

**Q.** And the “toxicity compared with AT7519” value ([3]; mice, i.v.)?
**A.** Its value is “much less toxic than AT7519”.

**Q.** And the “plasma AT7519 exposures compared with AT7519 dosing” value [4]?
**A.** Its value is “much higher”.

**Q.** Which Animal death ([1]; 0.125 mmol/kg) does the source give for COC(=O)[C@H](C)NP(=O)(Oc1ccccc1)N1CCC(NC(=O)c2n[nH]cc2NC(=O)c2c(Cl)cccc2Cl)CC1 (stereo partly drawn) [Compound 12, N-((4-(4-(2,6-dichlorobenzamido)-1H-pyrazole-3-carboxamido)-1-piperidinyl)(phenoxy)phosphinyl)-L-alanine methyl Ester] here?
**A.** Its Animal death is “Behaved normally”.

**Q.** And the Animal death ([1]; 0.125 mmol/kg, listed as compound 12)?
**A.** The Animal death was “did not induce the animal death”.

**Q.** What about the “Body weight (g) Day 0” value [2, 12] of the same compound?
**A.** The value was 19.75 g.

**Q.** What about the “Body weight (g) Day 1” value [2, 12] of the same compound?
**A.** The value was 18.70 g.

**Q.** What about the “Body weight (g) Day 2” value [2, 12] of the same compound?
**A.** Its value is 19.17 g.

**Q.** And the “Body weight (g) Day 4” value [2, 12]?
**A.** Its value is 19.95 g.

**Q.** What about the “Body weight (g) Day 7” value [2, 12] of the same compound?
**A.** The value was 20.79 g.

**Q.** What about the “Body weight (g) Day 10” value [2, 12] of the same compound?
**A.** Its value is 21.30 g.

**Q.** What about the “Death rate (%)” value ([3]; mice, i.v., 0.124 mmol/kg) of the same compound?
**A.** The value was 0%.

**Q.** And the “toxicity compared with AT7519” value ([3]; mice, i.v.)?
**A.** Its value is “much less toxic than AT7519”.

**Q.** What about the “plasma AT7519 exposures compared with AT7519 dosing” value [4] of the same compound?
**A.** Its value is “much higher”.

**Q.** What does the source list for O=C(NC1CCNCC1)c1n[nH]cc1NC(=O)c1c(Cl)cccc1Cl [AT7519, 4-(2,6-Dichlorobenzamido)-N-(4-piperidinyl)-1H-pyrazole-3-carboxamide]?
**A.** cytotoxicity in PBMNC [5]: does not induce cytotoxicity; Animal death ([1]; 0.049 mmol/kg): already at their lethal doses; also recorded: Died immediately post-dosing; AEs of CTCAE grade 1 severity [6]: 46.7%; AEs of CTCAE grade 2 severity [6]: 37.8%; patients with at least one treatment-related AE [6]: 82.1%; treatment-emergent AE anorexia [6]: 39.3%; treatment-emergent AE constipation [6]: 32.1%; treatment-emergent AE fatigue [6]: 42.9%; treatment-emergent AE hypotension [6]: 25.0%; treatment-emergent AE nausea [6]: 50.0%; treatment-emergent AE peripheral edema [6]: 25.0%; treatment-emergent AE pyrexia [6]: 25.0%; treatment-emergent AE vomiting [6]: 39.3%; IC50 (U266): 500 nM; IC50 (SW620): 940 nM; DLT among the initial three patients [7]: one patient experienced DLT (grade 3 fatigue); DLT in two additional patients [7]: both of whom experienced DLTs (febrile neutropenia and grade 3 hypokalemia and mucositis); Body weight (g) Day 0 [2, 13]: 19.44 g; Body weight (g) Day 1 [2, 13]: 19.53 g; Body weight (g) Day 2 [2, 13]: 19.45 g; Body weight (g) Day 4 [2, 13]: 20.94 g; Body weight (g) Day 7 [2, 13]: 20.83 g; Body weight (g) Day 10 [2, 13]: 20.63 g; IC50 (MCF-7): 40 nM; threshold lethal dose ([3]; male, BALB/c, mouse, in vivo, iv): 0.031 mmol/kg; Death rate (%) ([3]; mice, i.v., 0.031 mmol/kg): 20%; Number of deaths ([3]; mice, i.v., 0.031 mmol/kg, 20 animals in group): 4; Death rate (%) ([3]; mice, i.v., 0.039 mmol/kg): 100%; median overall survival (human MM xenograft): prolong the median overall survival; tumor growth (human MM xenograft): inhibit tumor growth; effect on tumors [8]: tumor regression; activity against all non-CDK kinases (non-CDK kinases): inactive; concentration at 2 min [4, 14]: 10200 ng/mL; concentration at 10 min [4, 14]: 1840 ng/mL; concentration at 1 h [4, 14]: 489 ng/mL; concentration at 4 h [4, 14]: 47 ng/mL; effect on tumors [9]: tumor regression; IC50 (MM.1S): 500 nM; IC50 (MM.1R): > 2000 nM; concentration at 2 min [10]: 19100 ng/mL; concentration at 10 min [10]: 4600 ng/mL; concentration at 1 h [10]: 814 ng/mL; concentration at 4 h [10]: 554 ng/mL; concentration at 6 h [10]: 148 ng/mL
